This experiment deals with human PAD4 (hPAD4) (Homo sapiens, UniProt Q9UM07). As to the kind of experiment: RFMS human PAD4 functional assay (rapid-fire mass spectrum). The experiment is classed as biochemical. Particulars: 5 nM hPAD4 enzyme, 250 μM BAEE, 50 μM Calcium; 30 min preincubation, 90 min reaction at 37° C. Put shortly: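 PAD4 (10 nM) preincubated 30 min with compound (top final 50 μM), then BAEE substrate added in pH 7.5 HEPES buffer with DTT, 50 μM calcium, TPEN; 90 min at 37° C. After TCA quench, citrulline derivatized with phenyl glyoxal (4 mM final, 30 min, 37° C) and quantified by RapidFire MS against internal standard.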

pIC50: −log10 of the molar value.

human PAD4 (hPAD4), sequence (Q9UM07 whole entry): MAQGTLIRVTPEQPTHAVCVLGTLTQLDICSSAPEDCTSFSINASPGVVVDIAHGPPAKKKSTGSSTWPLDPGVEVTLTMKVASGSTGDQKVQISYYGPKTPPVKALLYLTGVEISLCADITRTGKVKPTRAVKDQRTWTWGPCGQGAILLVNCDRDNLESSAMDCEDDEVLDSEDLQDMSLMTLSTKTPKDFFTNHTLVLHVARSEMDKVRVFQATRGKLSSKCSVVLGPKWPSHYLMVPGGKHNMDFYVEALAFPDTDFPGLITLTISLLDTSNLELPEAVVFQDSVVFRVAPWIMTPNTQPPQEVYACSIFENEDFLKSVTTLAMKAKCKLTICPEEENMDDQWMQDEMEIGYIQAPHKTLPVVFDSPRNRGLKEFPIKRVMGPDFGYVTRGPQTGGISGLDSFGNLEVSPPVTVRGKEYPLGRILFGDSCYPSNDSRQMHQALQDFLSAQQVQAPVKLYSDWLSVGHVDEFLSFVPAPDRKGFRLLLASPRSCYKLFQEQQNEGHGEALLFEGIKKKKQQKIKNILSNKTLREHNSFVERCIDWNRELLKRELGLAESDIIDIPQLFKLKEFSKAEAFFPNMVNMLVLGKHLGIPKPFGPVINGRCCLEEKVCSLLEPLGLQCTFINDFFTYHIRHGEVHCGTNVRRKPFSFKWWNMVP

Consider `COc1cc(C(=O)N2C[C@H]3CC[C@@H]2[C@@H]3N)cc2nc(-c3cc4cccnc4n3CC3CC3)n(C3CN(C(C)=O)C3)c12` [Example 191, 1-(3-{5-[(1R,4R,7R)-7-amino-2-azabicyclo[2.2.1]heptane-2-carbonyl]-2-[1-(cyclopropylmethyl)-1H-pyrrolo[2,3-b]pyridin-2-yl]-7-methoxy-1H-1,3-benzodiazol-1-yl}azetidin-1-yl)ethan-1-one], for which the pIC50 is 6.05.
`COc1cc(C(=O)N2C[C@H]3CC[C@@H]2[C@@H]3N)cc2nc(-c3cc4cccnc4n3CC3CC3)n(C3CN(C(=O)c4ccnc(C)n4)C3)c12` [Example 97, (1R,4R,7R)-2-{2-[1-(cyclopropylmethyl)-1H-pyrrolo[2,3-b]pyridin-2-yl]-7-methoxy-1-[1-(2-methylpyrimidine-4-carbonyl)azetidin-3-yl]-1H-1,3-benzodiazole-5-carbonyl}-2-azabicyclo[2.2.1]heptan-7-amine]: the pIC50 was 7.20.
The value for `COc1ncccc1-n1cc(Cn2c(-c3cc4cccnc4n3CC3CC3)nc3cc(C(=O)N4C[C@H](N)C[C@@H](F)C4)cc(OC)c32)cn1` [Example 343, (3R,5R)-1-{2-[1-(cyclopropylmethyl)-1H-pyrrolo[2,3-b]pyridin-2-yl]-7-methoxy-1-{[1-(2-methoxypyridin-3-yl)-1H-pyrazol-4-yl]methyl}-1H-1,3-benzodiazole-5-carbonyl}-5-fluoropiperidin-3-amine] was 6.94.
The value for `COc1cc(C(=O)N2CC3CCC2[C@@H]3N)cc2nc(-c3cc4ccccc4n3CC3CC3)n(CC3CN(C(=O)c4cc[n+]([O-])cc4)C3)c12` (stereo partly drawn) [Example 461, 4-[3-({5-[(7R)-7-amino-2-azabicyclo[2.2.1]heptane-2-carobnyl]-2-[1-(cyclopropylmethyl)-1H-indol-2-yl]-7-methoxy-1H-1,3-benzodiazol-1-yl}methyl)azetidine-1-carbonyl]pyridin-1-ium-1-olate] was 7.17; that for `COC(=O)N1CC(Cn2c(-c3cc4cccnc4n3CC3CC3)nc3cc(C(=O)N4CCC[C@@H](N)C4)cc(OC)c32)C1` [Example 192, methyl 3-({5-[(3R)-3-aminopiperidine-1-carbonyl]-2-[1-(cyclopropylmethyl)-1H-pyrrolo[2,3-b]pyridin-2-yl]-7-methoxy-1H-1,3-benzodiazol-1-yl}methyl)azetidine-1-carboxylate] was 5.80.
As for `COc1cc(C(=O)N2CC3CCC2[C@@H]3N)cc2nc(-c3cc4ccccc4n3CC3CC3)n(CCc3cn[nH]c3)c12` (stereo partly drawn) [Example 508, (7R)-2-{2-[1-(cyclopropylmethyl)-1H-indol-2-yl]-7-methoxy-1-[2-(1H-pyrazol-4-yl)ethyl]-1H-1,3-benzodiazole-5-carbonyl}-2-azabicyclo[2.2.1]heptan-7-amine], the pIC50 is 6.54.
Take `Cc1cc(C(=O)N2CC3CCC2[C@@H]3N)cc2nc(-c3cc4cccnc4n3CC3CC3)n(CC3CN(C(=O)c4ccc(C#N)cc4)C3)c12` (stereo partly drawn) [Example 471, 4-[3-({5-[(7R)-7-amino-2-azabicyclo[2.2.1]heptane-2-carbonyl]-2-[1-(cyclopropylmethyl)-1H-pyrrolo[2,3-b]pyridin-2-yl]-7-methyl-1H-1,3-benzodiazol-1-yl}methyl)azetidine-1-carbonyl]benzonitrile]: the pIC50 was 6.64.
As to `C#CC(=O)N1CC(Cn2c(-c3cc4cccnc4n3CC3CC3)nc3cc(C(=O)N4CC5CCC4[C@@H]5N)cc(OC)c32)C1` (stereo partly drawn) [Example 133, 1-[3-({5-[(1R,4R,7R)-7-amino-2-azabicyclo[2.2.1]heptane-2-carbonyl]-2-[1-(cyclopropylmethyl)-1H-pyrrolo[2,3-b]pyridin-2-yl]-7-methoxy-1H-1,3-benzodiazol-1-yl}methyl)azetidin-1-yl]prop-2-yl-1-one], the pIC50 is 6.78.

Values taken from patent US12692254B2, “Benzimidazole inhibitors of PAD enzymes” (BRISTOL-MYERS SQUIBB COMPANY, priority 2018, dated 2026).
